Experiments:
[1] = Stresso-protective activity, motion stress in slowly rotating drum for 48 hours; type: in vivo, rats; details: 48 h motion stress, 10 mg/kg i.p. four times (invention, ester)
Method: In evaluation of the stresso-protective activity of the compound according to the present invention as a model use was made of a procedure of depriving rats of sleep, meals and water in a slowly rotating drum (at the speed of 0.2 km/h).
The experiments were carried out on 42 nondescript male rats. In parallel experiments the antistress activity of butanedioic acid mono[(2-dimethylamino)ethyl ester] was studied; as the reference prepartion use was made of the prior art tranquilizer--diazepam which was used in the experiments for this very indication.
4 groups of animals were tested in parallel. Groups I and II were placed for 48 hours into a slowly rotating drum, groups III and IV were under normal conditions and were deprived only of meals and water. The compound according to the present invention and butanedioic acid mono[(2-dimethylamino)ethyl ester] were administered intraperitoneally in the dose of 10 mg/kg four times (2 times a day) in the volume of 2.5 ml/kg under the conditions of motion stress (Group I of the animals) and under normal conditions (Group III of animals). The control animals--Group II (active control) and Group IV (passive control) were given a physiological solution. The efficiency of the compound according to the present invention, of butanedioic acid mono[(2-dimethylamino)ethyl ester] and of diazepam was estimated on the basis of a set of characteristics showing the functional activity of the central nervous system, physical fitness and development of basic symptoms of the stress-syndrome.
The residence of control rats in a slowly-rotating drum over 48 hours results in a noticeable deterioration of all the studied characteristics, especially those of higher nervous activity (learning) and development of stress-syndrome. The state of control animals was characterized by lowering of the overall behavioural activity as determined by the "open-field" test (37±15%) with reference to the passive control level, by a reduction in the speed of development of a conventional avoiding response in an aqueous labyrinth (58±15%), by an increase in the number of mistakes during the teaching time (175±25%), lowering of the ultimate physical endurance as determined by the swimming-with-load test (the load is equal to 10% by mass of the body (70±17%), adrenal hypertrophy (146±16%), thymus atrophy (49±9%) and formation of ulcers on the stomach mucous membrane (5.25±1.0%).

[2] = Survival of mice on acute cooling; type: in vivo; details: i.p. 1 hour before, 80 mg/kg (invention), 64 mg/kg (ester), 17 mg/kg (sodium succinate)
Method: The activity of the compound according to the present invention was studied in experiments on animals. The effectivemess of the compound according to the present invention was studied for resistance against an acute cold effect in comparison with conventional preparations such as butanedioic acid mono[(2-dimethylamino)ethyl ester] and sodium succinate.
The experiments were carried out on male mice (tetrahybdrids) with a body mass of 18-20 g which were placed into a cold chamber at a temperature of -15t to -17° C. in separate plastic cages slightly limiting their activity. […] The preparations were administered intraperiotoneally 1 hour before the cold effect the control animals were administered with a physiological solution.

SMILES | Weight coefficient of thymus ([1]; control 0.95 ± 0.18) | Weight coefficient of adrenal glands ([1]; control 1.246 ± 0.028) | Number of attempts till reaching the learning criterion (water labyrinth) ([1]; control 4.75 ± 0.5) | Number of ulcers on the stomach mucous membrane ([1]; control 5.25 ± 1.0) | Duration of swimming ([1]; control 244 ± 26) [s] | Survival, %, 1 hour ([2]; 1 hour of cold at -15 to -17° C.) [%] | Survival, %, 2 hours ([2]; 2 hours of cold at -15 to -17° C.) [%] | Survival, %, 3 hours ([2]; 3 hours of cold at -15 to -17° C.) [%] | Survival, %, 4 hours ([2]; 4 hours of cold at -15 to -17° C.) [%] | Survival, %, 5 hours ([2]; 5 hours of cold at -15 to -17° C.) [%] | Survival, %, 6 hours ([2]; 6 hours of cold at -15 to -17° C.) [%]
CN1C(=O)CN=C(c2ccccc2)c2cc(Cl)ccc21 [Diazepam, diazepam] | 2.26 g/kg of the initial body mass | 1.010 g/kg of the initial body mass | 7.25 | 1.0 | 210 |  |  |  |  |  | 
O=C(O)CCC(=O)O [Sodium succinate, sodium succinate] |  |  |  |  |  | 100 | 80 | 70 | 40 | 10 | 0

Reference: patent US4691046A, “Butanedioic acid mono [(2-dimethylamino] ethyl ester)succinate” (Institut Organicheskoi Khimii Ordena Lenina I Ordena …, priority 1986, dated 1987)
